According to patent publication US8802240B2, “Uses of formulations of thyroid hormone analogs and nanoparticulate forms thereof to increase chemosensitivity and radiosensitivity in tumor or cancer cells” (Nanopharmaceuticals LLC, priority 2011, dated 2014):

System: GL261 murine brain tumor cells
Assay: GL261 clonogenic survival after single doses of 250 kVp x-rays
Assay type: cell-based
Protocol: To irradiate 25 cm^2 flasks, an x-ray machine was used and (Philips 250 kVp Therapeutic X-ray Machine, Einhoven, […]) operated at 250 kVp and 15 mA with added filtration of 0.4 mm Thoreaus filter. The target to source distance was approximately 30 cm. Dose rates were measured using an R-meter (Victoreen R-meter, Cleveland, Ohio), and converted to absorbed (Gy) doses using appropriate temperature, pressure, and R to Gy conversion factors. The dose rate was 1 Gy per min. Flasks were irradiated at ambient temperature.
For […] analyses, survival data lying at or below 36.8% survival were analyzed by using the log fractional survival (log F×S) versus dose (D). Data were fit using linear regression analysis (SigmaPlot, V. 10, Systat Corp., Point Richmond, Calif.) to obtain the Y-intercept (or n, the extrapolation number) and the slope (1/D0), and their 95% confidence limits. (See Goldstein, A. In: Biostatistics, New York, The MacMillan Co., 1964, p. 140-146). The D0 value (Gy) is defined as the inverse of the slope, and the corrected Dq value (Gy) was then defined using the relationship: Dq(Gy)=ln n×D0(Gy) The 95% confidence limits on Dq were defined using error propagation. (See Chase, et al., In: Principles of Radioisotope Methodology. Minneapolis, Minn. Burgess Publ. Co., 1962, p. 68, 87-90). Statistics: LQ Analysis
For LQ analyses, data lying between a fractional survival of 1.00 and 0.05 were used. The fractional survival data at each dose were transformed using the relationship (−ln F×S/D) and plotted against dose (D). A regression analysis was performed to yield the LQ equation along with their 95% confidence limit values using a t-table with the appropriate (N−1) degrees of freedom. (See Goldstein, A. In: Biostatistics, New York, The MacMillan Co., 1964, p. 140-146).
To determine the Tetrac modification factor (TMF), the survival at 2 Gy obtained for control cells was divided by the survival at 2 Gy for Tetrac treated cells. The 95% confidence limits on the ratio were determined using error propagation techniques. (See Chase, et al. In: Principles of Radioisotope Methodology, Minneapolis, Minn., Burgress Publ. Co., 1962, p. 68, 87-90).

O=C(O)Cc1cc(I)c(Oc2cc(I)c(O)c(I)c2)c(I)c1 [Tetrac, tetraiodothyroacetic acid]
sensitization of oxic and hypoxic cells (in words) (2 μM, graded doses of 250 kVp x-rays): sensitize both oxic and hypoxic cells equally | SF2 (fractional survival at 2 Gy) (exponential phase with Tetrac, control 32.7): 14.2 (10.8-18.8) % | increase of the D0 value after addition of Tetrac (exponentially growing cells): 15% | reduction of the Dq value after addition of Tetrac (exponentially growing cells): 100% | reduction of the extrapolation number n after addition of Tetrac (exponentially growing cells): 93% | reduction of n after addition of Tetrac (plateau phase cells): 93% | reduction of the D0 after addition of Tetrac (plateau phase cells): 6% | reduction of the Dq after addition of Tetrac (plateau phase cells): 100% | SF2 (fractional survival at 2 Gy) (unfed plateau phase with Tetrac, control 20.6): 7.6%
